Molecular target: thrombin (Homo sapiens, UniProt P00734)
Conditions: fibrinogen 3 mg/ml, thrombin 20 nM, 37° C., no pre-incubation, dose-dependent
Method: 200 μl of fibrinogen (final concentration 3 mg/ml) were incubated with 100 μl of peptides (various concentrations) at 37° C. Clotting of fibrinogen was initiated by the addition of 100 μl of thrombin (final concentration 20 nM). All reagents and samples were dissolved in 50 mM Tris buffer (pH 7.4) containing 100 mM NaCl.

APPFDFEAIPEEYLDDES [AP18]
fibrinogen clotting time: prolonged

— patent publication US20130183237A1 (priority 2007, published 2013)
